Data published in US12613249B2 (THE ROYAL INSTITUTION FOR THE ADVANCEMENT OF LEARNING / …, priority 2019, dated 2026).
“And” between values parts separate entries of the source, which are not always exact repeats. Identical values can stand only once. Square brackets hold non-standard residues; d marks the D form. Peptide text beside a SMILES is read from it.

Assay: Plasma pharmacokinetics after single oral dose, LC-MS
Type: in vivo, C57BL/6 mice
Details: for CL/F (apparent total clearance from plasma) / λz (elimination rate constant): plasma
Procedure: An internal standard (IS) for the reliable quantification of D-AIP in biological matrices was prepared by dimethylation to produce an analog of D-AIP by using a protocol previously described (Boersema et al., 2009, Nat Protoc, 4:484-494). Standard solutions (1 mg/mL) each of D-AIP and IS were prepared in deionized water and 100% methanol respectively. 100 μL of IS working solution was prepared at 50 ng/ml added to 25 μL of the sample (plasma or brain homogenate). The sample was vortexed for approximately 5 s and let stand for 10 min, then centrifuged at 16,000 g for 10 min. The supernatant was transferred to a 13×100 polypropylene tube and evaporated to dryness at 50° C. under gentle stream of nitrogen. The dry extract was re-suspended with 40 μL of 0.1% (v/v) formic acid (Sigma Aldrich, St-Louis, MO, USA) in deionized water and transferred to an injection vial for analysis.
Thermo Scientific TSQ Quantiva Triple Quadrupole mass spectrometer (San Jose, CA, USA) was interfaced with the Thermo Scientific UltiMate 3000 XRS UHPLC system (San Jose, CA, USA) using a pneumatic assisted heated electrospray ion source. Data acquisition and analysis were performed using Xcalibur 4.0 (San Jose, CA, USA).
[…]radient elution was used with a Thermo Scientific BioBasic-8 column (100×2 mm I.D. 5 μm) operating at 40° C. The initial mobile phase condition consisted of 0.1% formic acid in acetonitrile and 0.1% formic acid in deionized water at a ratio of 5:95, respectively and this ration was maintained for 1 min. A linear gradient was applied from 1 to 5 min up to a ratio of 50:50 and maintained for 1 min. At 6.1 min, the mobile phase composition was reverted to 5:95 and the column was allowed to equilibrate for 7.9 min for a total run time of 14 min. The D-AIP and IS eluted at 4.7 and 4.8 min respectively at a fixed flow rate of 0.2 mL/min. The eluent was diverted to waste for the first minute and last six minutes. Extracted sample (5 μL) was injected and the acquisition time was set to 14 min.
The mass spectrometer was interfaced with ultra-high-performance liquid chromatography (UHPLC) system using a pneumatic assisted heated electrospray ion source with detection in positive ion mode using […] (MRM). For proper optimization of the mass spectrometer, standard solutions of D-AIP and IS were infused. The obtained source parameters were 50 and 15 arbitrary units respectively while using nitrogen for the sheath and auxiliary gases. The HESI electrode was set to 3500 V, capillary and vaporizer temperature were both set to 300° C. respectively. The MS/MS parameters were optimized using the doubly charged species. Argon was used as collision gas at a pressure of 2.5 mTorr. The precursor-ion reaction for D-AIP were set to 471.4→[591.8+648.3] and for the IS the MRM transitions were set to 499.4→[425.8+468.8+476.8]
Standard solution of D-AIP (1 mg/mL) was diluted in various volumes of deionized water to obtain series of standard working solutions. Calibration standards were prepared by fortifying the mouse plasma and mouse brain homogenate with the standard working solutions at 10% (v/v) to enable analytical concentration range of 1.00 to 1000 ng/ml. The method is linear using a linear regression weighted 1/x analysis, a value of R^2≥0.9979 was obtained for plasma and R^2≥0.9991 for brain homogenate. Samples were injected in duplicate with the calculated in each case and concentrations were processed from the equation obtained from the respective calibration curves using Xcalibur 4.0 software.
Animal care and all animal experiments were undertaken with federal guidelines and approval of the Institutional Animal Ethical Committee of McGill University, Montreal, Canada (Protocol Application Number: 2017-7880) and adequate measures were taken to minimize pain or discomfort. […]

[1] = female C57BL/6 mice, single oral dose 10 mg/kg
[2] = female C57BL/6 mice, single oral dose 30 mg/kg
[3] = female C57BL/6 mice, single oral dose 100 mg/kg
[4] = male C57BL/6 mice, single oral dose 10 mg/kg
[5] = male C57BL/6 mice, single oral dose 100 mg/kg

C[C@H](O)[C@@H](NC(=O)CNC(=O)[C@H](N)CCCNC(=N)N)C(=O)N[C@H](Cc1ccccc1)C(=O)N[C@H](CCC(=O)O)C(=O)NCC(=O)N[C@H](CCCCN)C(=O)N[C@H](Cc1ccccc1)C(=O)O [D-AIP] (H-[dR]G[dT][dF][dE]G[dK][dF]-OH; N-terminus and C-terminus assumed)
dose relationship of AUC values (10, 30, 100 mg/kg oral, both sexes): linear in both sexes
plasma concentration decline (both sexes, all doses): reached baseline levels after 24 h
CL/F (apparent total clearance from plasma) [1]: 30.04 L/h
λz (elimination rate constant) [1]: 0.06 h⁻¹
CL/F (apparent total clearance from plasma) [2]: 42.02 L/h
λz (elimination rate constant) [2]: 0.10 h⁻¹
CL/F (apparent total clearance from plasma) [3]: 51.54 L/h
λz (elimination rate constant) [3]: 0.21 h⁻¹
CL/F (apparent total clearance from plasma) [4]: 35.81 L/h
λz (elimination rate constant) [4]: 0.15 h⁻¹
CL/F (apparent total clearance from plasma) (male C57BL/6 mice, single oral dose 30 mg/kg): 36.02 L/h
λz (elimination rate constant) (male C57BL/6 mice, single oral dose 30 mg/kg, 30 mg/kg): 0.21 h^−1 and 0.21. h^−1
CL/F (apparent total clearance from plasma) [5]: 48.79 L/h
λz (elimination rate constant) [5]: 0.24 h⁻¹
